Experimental data as given in the CheMixHub viscosity set.
Where “and” joins values, the source holds several entries; their conditions need not be identical. Equal values may be shown once.

Experiment: xn = mol fraction of the nth substance listed

CC1COC(=O)O1 (stereo not drawn) + CC#N
viscosity [mPa·s], 101.3 kPa
Details | x1 = 0.0418 | x1 = 0.0892 | x1 = 0.1438 | x1 = 0.2071 | x1 = 0.2815 | x1 = 0.3701 | x1 = 0.4776 | x1 = 0.6104 | x1 = 0.7791
298.15 K | 0.383 | 0.423 | 0.479 | 0.551 | 0.642 | 0.778 | 0.968 | 1.248 | 1.675
303.15 K | 0.363 | 0.403 | 0.454 | 0.521 | 0.605 | 0.731 | 0.906 | 1.161 | 1.535
308.15 K | 0.347 | 0.384 | 0.432 | 0.494 | 0.575 | 0.693 | 0.846 | 1.078 | 1.42
313.15 K | 0.331 | 0.367 | 0.411 | 0.469 | 0.543 | 0.654 | 0.802 | 1.054 | 1.31
318.15 K | 0.316 | 0.353 | 0.397 | 0.455 | 0.509 | 0.625 | 0.76 | 0.965 | 1.22

Cc1ccccc1 + CC#N
Details | viscosity [mPa·s]
298.15 K, 101.3 kPa, x1 = 0.04717 | 0.348
298.15 K, 101.3 kPa, x1 = 0.1002 | 0.35
298.15 K, 101.3 kPa, x1 = 0.1603 | 0.365
298.15 K, 101.3 kPa, x1 = 0.229 | 0.38
298.15 K, 101.3 kPa, x1 = 0.3082 | 0.403
298.15 K, 101.3 kPa, x1 = 0.4006 | 0.427
298.15 K, 101.3 kPa, x1 = 0.5097 | 0.457
298.15 K, 101.3 kPa, x1 = 0.6406 | 0.487
298.15 K, 101.3 kPa, x1 = 0.8004 | 0.527
298.17 K, 100 kPa, x2 = 0.5 | 0.4526
298.19 K, 100 kPa, x2 = 0.25 | 0.5085
303 K, 100 kPa, x2 = 0.126 | 0.5031
303 K, 100 kPa, x2 = 0.2324 | 0.4911
303 K, 100 kPa, x2 = 0.3293 | 0.4787
303 K, 100 kPa, x2 = 0.4233 | 0.4725
303 K, 100 kPa, x2 = 0.5023 | 0.4621
303 K, 100 kPa, x2 = 0.6588 | 0.4355
303 K, 100 kPa, x2 = 0.7316 | 0.4231
303 K, 100 kPa, x2 = 0.876 | 0.4007
308 K, 100 kPa, x2 = 0.126 | 0.4825
308 K, 100 kPa, x2 = 0.2324 | 0.4755
308 K, 100 kPa, x2 = 0.3293 | 0.4625
308 K, 100 kPa, x2 = 0.4233 | 0.4525
308 K, 100 kPa, x2 = 0.5023 | 0.4436
308 K, 100 kPa, x2 = 0.6588 | 0.4166
308 K, 100 kPa, x2 = 0.7316 | 0.4038
308 K, 100 kPa, x2 = 0.876 | 0.3715
308.15 K, 101 kPa, x1 = 0.1038 | 0.3334
308.15 K, 101 kPa, x1 = 0.2993 | 0.3692
308.15 K, 101 kPa, x1 = 0.3885 | 0.3887
308.15 K, 101 kPa, x1 = 0.5986 | 0.424
308.15 K, 101 kPa, x1 = 0.6907 | 0.4457
308.15 K, 101 kPa, x1 = 0.7946 | 0.4617
308.15 K, 101 kPa, x1 = 0.8925 | 0.4789
308.15 K, 101.3 kPa, x1 = 0.04717 | 0.309
308.15 K, 101.3 kPa, x1 = 0.1002 | 0.309
308.15 K, 101.3 kPa, x1 = 0.1603 | 0.33
308.15 K, 101.3 kPa, x1 = 0.3082 | 0.375
308.15 K, 101.3 kPa, x1 = 0.4006 | 0.389
308.15 K, 101.3 kPa, x1 = 0.5097 | 0.421
308.15 K, 101.3 kPa, x1 = 0.6406 | 0.434
308.15 K, 101.3 kPa, x1 = 0.8004 | 0.45
313 K, 100 kPa, x2 = 0.126 | 0.4655
313 K, 100 kPa, x2 = 0.2324 | 0.4551
313 K, 100 kPa, x2 = 0.3293 | 0.4425
313 K, 100 kPa, x2 = 0.4233 | 0.4311
313 K, 100 kPa, x2 = 0.5023 | 0.4179
313 K, 100 kPa, x2 = 0.6588 | 0.4006
313 K, 100 kPa, x2 = 0.7316 | 0.3878
313 K, 100 kPa, x2 = 0.876 | 0.3512
323.05 K, 100 kPa, x2 = 0.75 | 0.308
323.08 K, 100 kPa, x2 = 0.25 | 0.3879
323.09 K, 100 kPa, x2 = 0.5 | 0.3497

CC(=O)C1CCOC1=O (stereo not drawn) + CC(=O)C1CC1
101.3 kPa
Details | viscosity [mPa·s]
303.15 K, x2 = 0.0998 | 3.195
313.15 K, x2 = 0.3004 | 1.945

c1ccc2ccccc2c1 + CC(=O)O
viscosity
Details | 303.15 K | 308.15 K | 313.15 K | 318.15 K | 323.15 K
101 kPa, x1 = 0.06774 | 1.187 mPa·s | 1.093 mPa·s | 1.01 mPa·s | 0.9386 mPa·s | 0.8751 mPa·s
101 kPa, x1 = 0.116 | – | 1.108 mPa·s | 1.024 mPa·s | 0.951 mPa·s | 0.8838 mPa·s
101.33 kPa, x1 = 0.06774 | 1.187 mPa·s | 1.093 mPa·s | 1.01 mPa·s and 1.01 mPa·s | 0.9386 mPa·s | 0.8751 mPa·s
101.33 kPa, x1 = 0.08923 | – | – | 1.023 mPa·s | – | –
101.33 kPa, x1 = 0.116 | – | – | 1.024 mPa·s | – | –
101.33 kPa, x1 = 0.12 | – | 1.108 mPa·s | 1.024 mPa·s | 0.951 mPa·s | 0.8838 mPa·s
101.33 kPa, x1 = 0.1443 | – | – | 1.049 mPa·s | – | –

CCCC(=O)[O-].OCC[NH2+]CCO + CC(=O)O.NCCO
viscosity [mPa·s], 101.3 kPa
Details | x2 = 0.1516 | x2 = 0.2854 | x2 = 0.4059 | x2 = 0.5163 | x2 = 0.6146 | x2 = 0.7052 | x2 = 0.7885 | x2 = 0.8646 | x2 = 0.9348
293.15 K | 1991 | 2150 | 2309 | 2468 | 2628 | 2787 | 2946 | 3105 | 3264
298.15 K | 1330 | 1434 | 1538 | 1642 | 1746 | 1850 | 1955 | 2059 | 2163
303.15 K | 906.1 | 972.3 | 1039 | 1105 | 1171 | 1237 | 1303 | 1370 | 1436
308.15 K | 631.9 | 675.2 | 718.4 | 761.7 | 804.9 | 848.2 | 891.4 | 934.7 | 978
313.15 K | 450.1 | 479.1 | 508.1 | 537.1 | 566.1 | 595.1 | 624.1 | 653.1 | 682.1
318.15 K | 327 | 347 | 366.9 | 386.9 | 406.8 | 426.8 | 446.7 | 466.7 | 486.6
323.15 K | 242 | 256 | 270.1 | 284.1 | 298.1 | 312.2 | 326.2 | 340.2 | 354.3

COc1ccccc1 + CC(C)(C)O
viscosity [mPa·s], 100.33 kPa
Details | x1 = 0.1 | x1 = 0.1999 | x1 = 0.3002 | x1 = 0.4001 | x1 = 0.5 | x1 = 0.6001 | x1 = 0.6998 | x1 = 0.8001 | x1 = 0.9001
303.15 K | 2.101 | 1.758 | 1.484 | 1.272 | 1.143 | 1.011 | 0.954 | 0.928 | 0.919
313.15 K | 1.585 | 1.29 | 1.099 | 1.002 | 0.915 | 0.853 | 0.825 | 0.808 | 0.798
323.15 K | 1.222 | 1.022 | 0.887 | 0.815 | 0.773 | 0.743 | 0.722 | 0.711 | 0.701

CC1COC(=O)O1 (stereo not drawn) + CC(C)=O
303.15 K, 101.3 kPa
Details | viscosity [mPa·s]
x1 = 0.088 | 0.3518
x1 = 0.1784 | 0.4187
x1 = 0.2713 | 0.5016
x1 = 0.3668 | 0.6038
x1 = 0.4647 | 0.7316
x1 = 0.5657 | 0.8959
x1 = 0.6697 | 1.104
x1 = 0.7768 | 1.371
x1 = 0.8864 | 1.71

c1ccc2ccccc2c1 + CC(C)=O
viscosity [mPa·s], 101 kPa
Details | 298.15 K | 303.15 K | 308.15 K | 313.15 K
x1 = 0.1688 | 0.487 | 0.464 | 0.4428 | 0.4207
x1 = 0.2356 | 0.5618 | 0.5296 | 0.5029 | 0.4781

C1CCOC1 + CC(C)CC(C)(C)C
viscosity [mPa·s], 101 kPa
Details | x1 = 0.1001 | x1 = 0.2 | x1 = 0.3 | x1 = 0.4 | x1 = 0.5 | x1 = 0.6 | x1 = 0.7 | x1 = 0.8 | x1 = 0.9
298.15 K | 0.479 | 0.477 | 0.475 | 0.474 | 0.473 | 0.472 | 0.472 | 0.471 | 0.471
308.15 K | 0.433 | 0.432 | 0.432 | 0.431 | 0.431 | 0.432 | 0.432 | 0.432 | 0.432

CC(C)=O + CC(C)CC(C)(C)C
298.15 K, 101 kPa
Details | viscosity [mPa·s]
x1 = 0.0643 | 0.456
x1 = 0.1001 | 0.448
x1 = 0.2004 | 0.428
x1 = 0.2297 | 0.422
x1 = 0.2934 | 0.417
x1 = 0.3408 | 0.404
x1 = 0.3994 | 0.395
x1 = 0.5006 | 0.378
x1 = 0.5566 | 0.367
x1 = 0.5927 | 0.36
x1 = 0.7032 | 0.341
x1 = 0.7941 | 0.327
x1 = 0.8898 | 0.314

COc1ccccc1 + CC(C)CO
viscosity [mPa·s], 101.33 kPa
Details | x1 = 0.1001 | x1 = 0.2001 | x1 = 0.2999 | x1 = 0.4001 | x1 = 0.5 | x1 = 0.6001 | x1 = 0.7 | x1 = 0.8001 | x1 = 0.9002
303.15 K | 1.789 | 1.326 | 1.157 | 1.069 | 1.011 | 0.969 | 0.951 | 0.934 | 0.921
313.15 K | 1.355 | 1.064 | 0.933 | 0.862 | 0.845 | 0.831 | 0.816 | 0.803 | 0.792
323.15 K | 1.063 | 0.829 | 0.768 | 0.743 | 0.736 | 0.731 | 0.718 | 0.708 | 0.697

CC(=O)Oc1ccccc1C(=O)O + CC(C)O
viscosity [mPa·s], 101 kPa
Details | x1 = 0.00057 | x1 = 0.000763 | x1 = 0.000955 | x1 = 0.00115 | x1 = 0.00134 | x1 = 0.00153 | x1 = 0.00191
293.15 K | 2.382 | 2.382 | 2.383 | 2.384 | 2.385 | 2.386 | 2.389
298.15 K | 2.045 | 2.045 | 2.046 | 2.046 | 2.047 | 2.048 | 2.049
303.15 K | 1.763 | 1.764 | 1.764 | 1.765 | 1.766 | 1.767 | 1.768
308.15 K | 1.524 | 1.524 | 1.525 | 1.525 | 1.525 | 1.526 | 1.526
310.15 K | 1.437 | 1.438 | 1.438 | 1.438 | 1.439 | 1.439 | 1.44
313.15 K | 1.392 | 1.392 | 1.393 | 1.393 | 1.394 | 1.394 | 1.395
